Patent US20240197715A1, “PHARMACEUTICAL COMBINATIONS AND USES THEREOF” (NOVARTIS AG, priority 2022, published 2024)

How the values were obtained:
Assay type in all cases: in vivo
[1] = tested on: IM95 gastric carcinoma cells; test: IM95 xenograft efficacy in SCID-BEIGE mice; conditions: Example 17
Description: All animal studies were conducted in accordance to procedures covered by permit number 2275 issued by the Kantonales Veterinäramt Basel-Stadt and strictly adhered to the Eidgenössisches Tierschutzgesetz and the Eidgenössische Tierschutzverordnung. All animals were allowed to adapt for 7 days and housed in a pathogen-controlled environment (5 mice/Type III cage) with access to food and water ad libitum and were identified with transponders.
Compound A was made-up fresh on a weekly basis and kept at 4° C. and protected from light. It was dissolved in 20% Hydroxypropyl-β-Cyclodextrine (HP-β-CD, #H107-100G, SIGMA) in water (#10977023, Invitrogen) and administered p.o. Irradiation was performed with a XRad320™ from Precision X-Ray and an adjustable X-ray Collimator (#XD1601-0000, Precision X-Ray). Only the tumor implanted subcutaneously by using specific shields (#XD1907-2012, Precision X-Ray). 1.0×10^7 IM95 gastric carcinoma cells were implanted subcutaneously in SCID-BEIGE mice (Charles River, Germany). Treatment was initiated when tumors reached 200 mm^3 volume. Efficacy studies and tumor response were measured as above.

[2] = tested on: SHP-77 (CRL-2195, ATCC) MSS small cell lung carcinoma xenografts; test: SHP-77 MSS SCLC xenograft efficacy in nude mice; conditions: irinotecan i.v. once a week
Description: SHP-77 (CRL-2195, ATCC) is a MSS small cell lung carcinoma (SCLC). It was cultured in RPMI 1640 Medium, GlutaMAX™ (#61870036, GIBCO) supplemented with 10% FCS (#2-O-1F30-I, BioConcept). Cells were passaged by washing first with Dulbecco's PBS without Ca^2+/Mg^2+ (#3-05F29-1, AMIMED), trypsinising cells with Trypsin 0.05% in PBS with EDTA (#5-51F00-H, AMIMED), centrifuging in the respective culture media, and splitting cells into fresh media at a ratio of 1:8, 2 times per week.
Athymic nude mice (Charles River, Germany) were allowed to adapt for 7 days upon arrival at the animal facility and housed in a pathogen-controlled environment (5 mice/Type III cage) with access to food and water ad libitum. Animals were identified with transponders. […]
(§1) Tumor volumes (TVol), determined from caliper measurements (using the formula I*w2*TT/6) were measured two times per week. Tumor response was quantified by the change in tumor volume (endpoint minus starting value in mm^3) as the T/C. In the case of a tumor regression or to assess the percentage of change in TVol, the tumor response was quantified by the percentage of regression of the starting TVol. The body-weight (BW) of the animal was measured three times per week allowing calculation at any particular time-point relative to the day of initiation of treatment (day 0) of the percentage change in BW (4% BW).

[3] = Body weight / tolerability in SHP-77 tumor-bearing nude mice; conditions: SHP-77 study; irinotecan 15 mg/kg; FIGS. 46 and 47
Description: as §1

Structure (SMILES) | effect on tumor growth ([1]; Compound A 30 mg/kg p.o. qd single agent) | duration of response / relapse ([1]; Compound A 30 mg/kg, 5 Gy irradiation) | effect on tumor growth of parental SHP77 tumors [2] | body weight change [3]
CCc1c(N2CCN(C(=O)c3ncnc(C)c3O)CC2)c(=O)n2nc(C3=CCOCC3)nc2n1CC(=O)Nc1ccc(C(F)(F)F)cc1Cl [Compound A] | stable disease | for 21 days but followed by relapse in all tumor-bearing mice | – | –
CCc1c2c(nc3ccc(OC(=O)N4CCC(N5CCCCC5)CC4)cc13)-c1cc3c(c(=O)n1C2)COC(=O)[C@]3(O)CC [irinotecan] | – | – | no effect | slight body weight loss
